Reference: ChEMBL document CHEMBL1201862, “PubChem BioAssay data set” (2004)
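Compound exposure: 48 hours, 5 concentrations, 96-well plates. GI50 = concentration required for 50% inhibition of growth.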 Activity calls are given as the source filed them. Cut-off read from the data, not from the text of the source: active = GI50 up to about 1.1 µM and inactive = higher.

Key:
Test in all cases: DTP human tumour cell line panel, 48 h
[1] = tested on: ACHN
[2] = tested on: CAKI-1
[3] = tested on: COLO 205
[4] = tested on: HCC 2998
[5] = tested on: HL-60
[6] = tested on: HOP-62
[7] = tested on: HOP-92
[8] = tested on: KM12
[9] = tested on: LOX IMVI
[10] = tested on: Malme-3M
[11] = tested on: NCI-H226
[12] = tested on: NCI-H460
[13] = tested on: OVCAR-3
[14] = tested on: PC-3
[15] = tested on: RPMI-8226
[16] = tested on: SF-539
[17] = tested on: SK-MEL-5
[18] = tested on: SR
[19] = tested on: SW-620
[20] = tested on: UACC-62

SMILES: CCCCCCc1nn2c(-c3ccncc3)nnc2s1
- GI50 [1]: > 10 µM (inactive)
- GI50 [2]: > 10 µM (inactive)
- GI50 [3]: > 10 µM (inactive)
- GI50 [4]: > 10 µM (inactive)
- GI50 [5]: > 10 µM (inactive)
- GI50 [6]: > 10 µM (inactive)
- GI50 [7]: 8.65 µM (inactive)
- GI50 [8]: > 10 µM (inactive)
- GI50 [9]: > 10 µM (inactive)
- GI50 [10]: > 10 µM (inactive)
- GI50 [11]: > 10 µM (inactive)
- GI50 [12]: > 10 µM (inactive)
- GI50 [13]: > 10 µM (inactive)
- GI50 [14]: > 10 µM (inactive)
- GI50 [15]: > 10 µM (inactive)
- GI50 [16]: > 10 µM (inactive)
- GI50 [17]: > 10 µM (inactive)
- GI50 [18]: > 10 µM (inactive)
- GI50 [19]: > 10 µM (inactive)
- GI50 [20]: > 10 µM (inactive)

SMILES: COc1ccc(C2CCc3c(cnc4nc(N)nc(N)c34)C2)cc1 (stereo not given)
- GI50 [1]: 8.28 µM (inactive)
- GI50 [2]: > 100 µM (inactive)
- GI50 [3]: > 100 µM (inactive)
- GI50 [4]: 94.4 µM (inactive)
- GI50 [5]: 6.28 µM (inactive)
- GI50 [6]: 20.5 µM (inactive)
- GI50 [7]: 2.38 µM (inactive)
- GI50 [8]: > 100 µM (inactive)
- GI50 [9]: 0.968 µM (active)
- GI50 [10]: 18.9 µM (inactive)
- GI50 [11]: > 100 µM (inactive)
- GI50 [12]: 4.89 µM (inactive)
- GI50 [13]: 62.5 µM (inactive)
- GI50 [14]: > 100 µM (inactive)
- GI50 [15]: > 100 µM (inactive)
- GI50 [16]: 26.5 µM (inactive)
- GI50 [17]: 11 µM (inactive)
- GI50 [18]: 8 µM (inactive)
- GI50 [19]: 5.25 µM (inactive)
- GI50 [20]: 3.35 µM (inactive)

SMILES: Cc1ccc(/N=N/c2ccc(O)c(CN(C)C)c2)cc1
- GI50 [1]: 17.3 µM (inactive)
- GI50 [2]: 21.5 µM (inactive)
- GI50 [3]: 17.7 µM (inactive)
- GI50 [4]: 15.5 µM (inactive)
- GI50 [5]: 18.1 µM (inactive)
- GI50 [6]: 12.6 µM (inactive)
- GI50 [7]: 12.6 µM (inactive)
- GI50 [8]: 15.8 µM (inactive)
- GI50 [9]: 14 µM (inactive)
- GI50 [10]: 16.7 µM (inactive)
- GI50 [11]: 20.9 µM (inactive)
- GI50 [12]: 16.5 µM (inactive)
- GI50 [13]: 15.7 µM (inactive)
- GI50 [14]: 19.4 µM (inactive)
- GI50 [15]: 17.8 µM (inactive)
- GI50 [16]: 17.7 µM (inactive)
- GI50 [17]: 14.5 µM (inactive)
- GI50 [18]: 24.8 µM (inactive)
- GI50 [19]: 20.7 µM (inactive)
- GI50 [20]: 20.3 µM (inactive)

SMILES: Cc1ccc(O)c(-c2csc(NCN3CCN(CNc4nc(-c5cc(C)ccc5O)cs4)CC3)n2)c1
- GI50 [1]: > 100 µM (inactive)
- GI50 [2]: > 100 µM (inactive)
- GI50 [3]: > 100 µM (inactive)
- GI50 [4]: > 100 µM (inactive)
- GI50 [5]: > 100 µM (inactive)
- GI50 [6]: > 100 µM (inactive)
- GI50 [7]: > 100 µM (inactive)
- GI50 [8]: > 100 µM (inactive)
- GI50 [9]: > 100 µM (inactive)
- GI50 [10]: > 100 µM (inactive)
- GI50 [11]: > 100 µM (inactive)
- GI50 [12]: > 100 µM (inactive)
- GI50 [13]: > 100 µM (inactive)
- GI50 [14]: > 100 µM (inactive)
- GI50 [15]: 25.2 µM (inactive)
- GI50 [16]: > 100 µM (inactive)
- GI50 [17]: > 100 µM (inactive)
- GI50 [18]: > 100 µM (inactive)
- GI50 [19]: 77.3 µM (inactive)
- GI50 [20]: > 100 µM (inactive)

SMILES: COc1ccc(C(C)NNC(=O)c2ccncc2)c(OC)c1 (stereo not given)
- GI50 [1]: > 100 µM (inactive)
- GI50 [2]: > 100 µM (inactive)
- GI50 [3]: > 100 µM (inactive)
- GI50 [4]: > 100 µM (inactive)
- GI50 [5]: > 100 µM (inactive)
- GI50 [6]: > 100 µM (inactive)
- GI50 [7]: > 100 µM (inactive)
- GI50 [8]: > 100 µM (inactive)
- GI50 [9]: > 100 µM (inactive)
- GI50 [10]: > 100 µM (inactive)
- GI50 [11]: > 100 µM (inactive)
- GI50 [12]: > 100 µM (inactive)
- GI50 [13]: > 100 µM (inactive)
- GI50 [14]: > 100 µM (inactive)
- GI50 [15]: > 100 µM (inactive)
- GI50 [16]: > 100 µM (inactive)
- GI50 [17]: > 100 µM (inactive)
- GI50 [18]: > 100 µM (inactive)
- GI50 [19]: > 100 µM (inactive)
- GI50 [20]: > 100 µM (inactive)

SMILES: CCO/N=C\c1ccc2oc(-c3ccccc3)cc(=O)c2c1
- GI50 [1]: 1.51 µM (inactive)
- GI50 [2]: 0.427 µM (active)
- GI50 [3]: 0.0506 µM (active)
- GI50 [4]: 0.31 µM (active)
- GI50 [5]: 0.135 µM (active)
- GI50 [6]: 0.46 µM (active)
- GI50 [7]: 3.26 µM (inactive)
- GI50 [8]: 0.0522 µM (active)
- GI50 [9]: 1.07 µM (active)
- GI50 [10]: 0.184 µM (active)
- GI50 [11]: 0.421 µM (active)
- GI50 [12]: 0.136 µM (active)
- GI50 [13]: 0.0778 µM (active)
- GI50 [14]: 0.19 µM (active)
- GI50 [15]: 0.215 µM (active)
- GI50 [16]: 0.168 µM (active)
- GI50 [17]: 0.146 µM (active)
- GI50 [18]: < 0.0135 µM (active)
- GI50 [19]: 0.129 µM (active)
- GI50 [20]: 0.194 µM (active)

SMILES: N=C(N)c1ccc(/N=N\c2c(O)c(C(=O)Nc3ccccc3)cc3ccccc23)cc1
- GI50 [1]: 23.3 µM (inactive)
- GI50 [2]: > 58.9 µM (inactive)
- GI50 [3]: 29 µM (inactive)
- GI50 [4]: > 37.6 µM (inactive)
- GI50 [5]: 7.98 µM (inactive)
- GI50 [6]: 14.5 µM (inactive)
- GI50 [7]: 16.4 µM (inactive)
- GI50 [8]: 16.4 µM (inactive)
- GI50 [9]: 2.02 µM (inactive)
- GI50 [10]: 32.1 µM (inactive)
- GI50 [11]: 34.8 µM (inactive)
- GI50 [12]: 24.8 µM (inactive)
- GI50 [13]: 32.7 µM (inactive)
- GI50 [14]: 17.9 µM (inactive)
- GI50 [15]: 4.6 µM (inactive)
- GI50 [16]: 21 µM (inactive)
- GI50 [17]: 22.4 µM (inactive)
- GI50 [18]: 7.89 µM (inactive)
- GI50 [19]: 15.6 µM (inactive)
- GI50 [20]: > 87.5 µM (inactive)

SMILES: CC1=NN(C(=O)CC(=O)Nc2cccc(C)c2)C(=O)C1/N=N\c1ccc(S(=O)(=O)c2ccc(/N=N/C3C(=O)N(C(=O)CC(=O)Nc4cccc(C)c4)N=C3C)cc2)cc1 (stereo not given)
- GI50 [1]: > 100 µM (inactive)
- GI50 [2]: > 100 µM (inactive)
- GI50 [3]: > 100 µM (inactive)
- GI50 [4]: > 100 µM (inactive)
- GI50 [5]: > 100 µM (inactive)
- GI50 [6]: > 100 µM (inactive)
- GI50 [7]: > 100 µM (inactive)
- GI50 [8]: > 100 µM (inactive)
- GI50 [9]: > 100 µM (inactive)
- GI50 [10]: 85.5 µM (inactive)
- GI50 [11]: > 100 µM (inactive)
- GI50 [12]: > 100 µM (inactive)
- GI50 [13]: > 100 µM (inactive)
- GI50 [14]: > 100 µM (inactive)
- GI50 [15]: > 100 µM (inactive)
- GI50 [16]: > 100 µM (inactive)
- GI50 [17]: > 100 µM (inactive)
- GI50 [18]: > 100 µM (inactive)
- GI50 [19]: > 100 µM (inactive)
- GI50 [20]: > 100 µM (inactive)

SMILES: O=C(c1ccco1)N(Cc1ccco1)C(=S)Nc1ccccc1
- GI50 [1]: 19.5 µM (inactive)
- GI50 [2]: 7.08 µM (inactive)
- GI50 [3]: 12.9 µM (inactive)
- GI50 [4]: 33.1 µM (inactive)
- GI50 [5]: 1.79 µM (inactive)
- GI50 [6]: 36.6 µM (inactive)
- GI50 [7]: 7.53 µM (inactive)
- GI50 [8]: 8.2 µM (inactive)
- GI50 [9]: 7.21 µM (inactive)
- GI50 [10]: 14.7 µM (inactive)
- GI50 [11]: 66.8 µM (inactive)
- GI50 [12]: 49.1 µM (inactive)
- GI50 [13]: 15.7 µM (inactive)
- GI50 [14]: 30.5 µM (inactive)
- GI50 [15]: 3.1 µM (inactive)
- GI50 [16]: 6.46 µM (inactive)
- GI50 [17]: 17.5 µM (inactive)
- GI50 [18]: 3.1 µM (inactive)
- GI50 [19]: 12.4 µM (inactive)
- GI50 [20]: 14.1 µM (inactive)

SMILES: COc1ccc(C(SCC(N)C(=O)O)(c2ccc(OC)cc2)c2ccc(OC)cc2)cc1 (stereo not given)
- GI50 [1]: 12 µM (inactive)
- GI50 [2]: 17.3 µM (inactive)
- GI50 [3]: 12.4 µM (inactive)
- GI50 [4]: 12.9 µM (inactive)
- GI50 [5]: 14 µM (inactive)
- GI50 [6]: 13 µM (inactive)
- GI50 [7]: 14.7 µM (inactive)
- GI50 [8]: 6.32 µM (inactive)
- GI50 [9]: 9.02 µM (inactive)
- GI50 [10]: 10.8 µM (inactive)
- GI50 [11]: 13.2 µM (inactive)
- GI50 [12]: 11.3 µM (inactive)
- GI50 [13]: 12.2 µM (inactive)
- GI50 [14]: 11.1 µM (inactive)
- GI50 [15]: 15.9 µM (inactive)
- GI50 [16]: 12.9 µM (inactive)
- GI50 [17]: > 10 µM (inactive)
- GI50 [18]: 6.27 µM (inactive)
- GI50 [19]: > 10 µM (inactive)
- GI50 [20]: 10.7 µM (inactive)
